In the assay the test system is 299254-011-R-J1-PDC complex spheroid viability. The experiment in a line: Anticancer human tumor 299254-011-R-J1-PDC patient-derived melanoma cell line growth inhibition [POLQ]. The conditions noted are these: for viability, T/C: stronger effect = lower value. As to the method: Multicellular complex tumor spheroid response to Polymerase (POL) inhibitors (novobiocin, ART-558, RP6685) in combination with a variety of drugs and investigational agents in selected tumor cell lines
The POL inhibitors (novobiocin, ART-558, and RP6685) were evaluated both individually and in combination with standard of care and investigational anticancer small molecules within a complex spheroid model of solid tumors. . Complex spheroids include a stromal component modeled by human endothelial cells (HUVEC) and fibroblasts modeled by human mesenchymal stem cells (MSCs). The concentration ranges selected for each drug and investigational agent were based upon clinically achievable concentrations if the clinical Cmax of the agent was known.
Compounds. The drugs and investigational agents: novobiocin (NSC847541), ART-558 (NSC835418), RP-6685 (NSC848927), peposertib (NSC802822), ceralasertib (NSC780249), elimusertib (NSC800525), camonsertib (NSC841442), AZD-1390 (NSC803789), olaparib (NSC753686), talazoparib (NSC767125), rucaparib (NSC756644), sotorasib (NSC818433), MRTX-1133 (NSC836407), SN-38 (NSC673596), topotecan (NSC609699), epotoside (NSC141540), doxorubicin (NSC123127), gemcitabine (NSC613327), 5-fluorouracil (NSC19893), paclitaxel (NSC125973), vemurafenib (NSC761431), MSA-2 (NSC828583), SN-011 (NSC837082), adavosertib (NSC754352), prexasertib (NSC758257), carboplatin (NSC241240) and oxaliplatin (NSC266046), were obtained from the National Cancer Institute (NCI) Developmental Therapeutics Program Chemical Repository (21). The FDA-approved anticancer drug set is available from the Developmental Therapeutics Program at https://dtp.cancer.gov/organization/dscb/obtaining/. […] The stock solutions were prepared in dimethyl sulfoxide (DMSO, Sigma-Aldrich, St. Louis, MO, cat. D2650), except for the platinum compounds which were prepared in saline (Quality Biological, Gaithersburg, MD, cat. 114-055-101), at 800-fold the tested concentration and stored at -70 degrees C prior to their use. All drugs and investigational agents were tested over a range starting from a high concentration at or near the clinical Cmax and decreasing in half-log increments. If the clinical Cmax for an agent had not been determined, the highest concentration tested was 10 microM, except for SN-38, which was tested at a high concentration of 1 microM.
Cell Culture. All cells were maintained in an incubator at 37 degrees C and 5% CO2 with 95% humidity. The PDC lines were cultured according to standard operating procedures established by the NCI PDMR (https://pdmr.cancer.gov). Table 3 of the manuscript, lists the cell lines along with the number of the three cell types plated to form the mct-spheroids and media for tumor cell growth. After thawing, all PDC lines, except 997537-175-T-J1-PDC and 415267-285-R-J2-PDC, were cultured in Matrigel-coated flasks prepared with a working solution of 1X Ham's F-12 nutrient mix, without supplementation (Thermo Fisher Scientific, cat. 11765054), 100 U/mL penicillin-streptomycin (Thermo Fisher Scientific, cat. 15140122), and 2.5% Matrigel (Corning Inc., Corning, NY, cat. 354248) for the first three passages. The two PDC lines 997537-175-T-J1-PDC and 415267-285-R-J2-PDC were cultured on uncoated flasks. The 857933-349-R-J2-PDC line was cultured in 6C/Colon 1B media containing advanced DMEM/F-12 (Thermo Fisher Scientific, cat. 12634028), 10 mM HEPES (Thermo Fisher Scientific, cat. 15630080), 1X GlutaMAX supplement (Thermo Fisher Scientific, cat. 35050061), 0.1 mg/mL primocin (InvivoGen, San Diego, CA, cat. ant-pm-2), 10% defined fetal bovine serum, heat inactivated (HyClone Laboratories Inc., Logan, UT, cat. SH30070.03HI), 50% L-WRN conditioned media (ATCC, cat. CRL-3276), 1.25 mM N-Acetyl-L-cysteine (Sigma-Aldrich, cat. A9165), 10 mM nicotinamide (Sigma-Aldrich, cat. N0636), 1X B-27 supplement (Thermo Fisher Scientific, cat. 17504044), 1X N-2 supplement (Thermo Fisher Scientific, cat. […]

The mark [1] stands for this setting: curve of first compound, second compound 0.0316 µM.
Where [2] appears, read: curve of first compound, second compound 0.1 µM.
The mark [3] stands for this setting: curve of first compound, second compound 0.316 µM.
Setting [4] is: curve of first compound, second compound 1 µM.
[5] abbreviates: curve of first compound, second compound 3.16 µM.
[6] abbreviates: curve of first compound, second compound 10 µM.
[7] abbreviates: second compound 0.0316 µM, first compound 0.0316 µM.
Setting [8] is: second compound 0.0316 µM, first compound 0.1 µM.
[9] abbreviates: second compound 0.0316 µM, first compound 0.316 µM.
The mark [10] stands for this setting: second compound 0.0316 µM, first compound 1 µM.
The mark [11] stands for this setting: second compound 0.0316 µM, first compound 3.16 µM.
[12] abbreviates: second compound 0.0316 µM, first compound 10 µM.
Setting [13] is: second compound 0.1 µM, first compound 0.0316 µM.
[14] abbreviates: second compound 0.1 µM, first compound 0.1 µM.
The mark [15] stands for this setting: second compound 0.1 µM, first compound 0.316 µM.
Where [16] appears, read: second compound 0.1 µM, first compound 1 µM.
The mark [17] stands for this setting: second compound 0.1 µM, first compound 3.16 µM.
[18] abbreviates: second compound 0.1 µM, first compound 10 µM.
The mark [19] stands for this setting: second compound 0.316 µM, first compound 0.0316 µM.
The mark [20] stands for this setting: second compound 0.316 µM, first compound 0.1 µM.
[21] abbreviates: second compound 0.316 µM, first compound 0.316 µM.
Setting [22] is: second compound 0.316 µM, first compound 1 µM.
Setting [23] is: second compound 0.316 µM, first compound 3.16 µM.
[24] abbreviates: second compound 0.316 µM, first compound 10 µM.
Setting [25] is: second compound 1 µM, first compound 0.0316 µM.
[26] abbreviates: second compound 1 µM, first compound 0.1 µM.
Setting [27] is: second compound 1 µM, first compound 0.316 µM.
The mark [28] stands for this setting: second compound 1 µM, first compound 1 µM.
Where [29] appears, read: second compound 1 µM, first compound 3.16 µM.
Where [30] appears, read: second compound 1 µM, first compound 10 µM.
[31] abbreviates: second compound 3.16 µM, first compound 0.0316 µM.
[32] abbreviates: second compound 3.16 µM, first compound 0.1 µM.
The mark [33] stands for this setting: second compound 3.16 µM, first compound 0.316 µM.
Setting [34] is: second compound 3.16 µM, first compound 1 µM.
[35] abbreviates: second compound 3.16 µM, first compound 3.16 µM.
Setting [36] is: second compound 3.16 µM, first compound 10 µM.
Where [37] appears, read: second compound 10 µM, first compound 0.0316 µM.
Where [38] appears, read: second compound 10 µM, first compound 0.1 µM.
The mark [39] stands for this setting: second compound 10 µM, first compound 0.316 µM.
Setting [40] is: second compound 10 µM, first compound 1 µM.
Where [41] appears, read: second compound 10 µM, first compound 3.16 µM.
Where [42] appears, read: second compound 10 µM, first compound 10 µM.

pIC50: −log10 of the molar value. Values joined by “and” are separate entries in the source; they are usually repeats but may differ in a detail not shown here. Equal values may be shown once. Bounds are passed on as bounds.

One may read the pIC50 as −log10 of the IC50, conventionally taken in molar units. A word on the viability, T/C: it is the ratio of treated to control.
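Also: spheroids exposed to drugs for one week before measurement.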
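For viability, T/C in this document: percent viability relative to DMSO vehicle control taken as 100%.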

For the compound `CC1COCCN1c1cc(C2(O)CC3CCC(C2)O3)c2cnn(-c3ccn[nH]3)c2n1` (stereo not given) + Nc1ccc(C#CCN(C(=O)Cc2ncc(C(F)(F)F)cc2C(F)(F)F)c2ccc(F)cc2)nn1, the pIC50 is 6.77 under setting [1]; 6.76 under setting [2]; 6.89 under setting [3]; 6.86 under setting [4]; 7.01 under setting [5]; 7.01 under setting [6]. For the same compound, the viability, T/C reads like this: under setting [7], 90.4%; under setting [8], 61.6%; under setting [9], 34.3%; under setting [10], 27.1%; under setting [11], 15.7%; under setting [12], 11.1%. Moreover, the viability, T/C under setting [13] is 87.4%; the viability, T/C under setting [14] is 55.3%; the viability, T/C under setting [15] was 42.5%; the viability, T/C under setting [16] was 29.8%; the viability, T/C under setting [17] is 15.6%; the viability, T/C under setting [18] is 13.2%. Further, the viability, T/C under setting [19] is 80.6%; the viability, T/C under setting [20] was 49.6%; the viability, T/C under setting [21] is 39.5%; the viability, T/C under setting [22] is 26.6%; the viability, T/C under setting [23] is 18.5%; the viability, T/C under setting [24] is 11.5%. In addition, the viability, T/C by setting is: under setting [25], 91%; under setting [26], 55.7%; under setting [27], 35.2%; under setting [28], 21.5%; under setting [29], 16.5%; under setting [30], 12.9%. Besides, the viability, T/C by setting is: under setting [31], 79.1%; under setting [32], 49.5%; under setting [33], 31.8%; under setting [34], 23.1%; under setting [35], 18.9%; under setting [36], 14%. In addition, the viability, T/C is 73.8% under setting [37]; 48% under setting [38]; 35.8% under setting [39]; 22.1% under setting [40]; 18.4% under setting [41]; 15.5% under setting [42].
With `O=c1[nH]cc(F)c(=O)[nH]1`, the viability, T/C is 95.9% and 94% and 105% (compound 0.0316 µM); 103% and 102% and 106% (compound 0.1 µM); 105% and 118% and 103% (compound 0.316 µM); 96.4% and 103% and 93.8% (compound 1 µM); 90.9% and 85.9% and 98.6% (compound 3.16 µM); 74.2% and 79.7% and 81.9% (compound 10 µM). Further, the pIC50 (curve of compound) was < 5.00.
For `CC1COCCN1c1cc(-c2ccnn2C)c2ccnc(-c3ccn[nH]3)c2n1` (stereo not given) + Nc1ccc(C#CCN(C(=O)Cc2ncc(C(F)(F)F)cc2C(F)(F)F)c2ccc(F)cc2)nn1, the pIC50 under setting [1] was 6.51; the pIC50 under setting [2] is 6.65; the pIC50 under setting [3] is 6.53; the pIC50 under setting [4] is 6.58; the pIC50 under setting [5] was 6.75; the pIC50 under setting [6] is 6.80. Besides, the viability, T/C under setting [7] is 87.8%; the viability, T/C under setting [8] was 80.3%; the viability, T/C under setting [9] is 43.7%; the viability, T/C under setting [10] was 36.3%; the viability, T/C under setting [11] was 22.3%; the viability, T/C under setting [12] is 18.7%. The viability, T/C runs as follows: under setting [13], 102%; under setting [14], 70.9%; under setting [15], 41.9%; under setting [16], 27.8%; under setting [17], 23.2%; under setting [18], 25.4%. The viability, T/C reads like this: under setting [19], 102%; under setting [20], 70.5%; under setting [21], 50.4%; under setting [22], 31.2%; under setting [23], 28.1%; under setting [24], 19.5%. Further, the viability, T/C is, setting by setting: under setting [25], 88.7%; under setting [26], 68.5%; under setting [27], 43.8%; under setting [28], 33.8%; under setting [29], 31.2%; under setting [30], 19.6%. Further, the viability, T/C was 84.7% under setting [31]; 62.6% under setting [32]; 36.3% under setting [33]; 32.4% under setting [34]; 19.9% under setting [35]; 25.4% under setting [36]. Also, the viability, T/C is 82.5% under setting [37]; 54.6% under setting [38]; 42.6% under setting [39]; 33.2% under setting [40]; 20.7% under setting [41]; 25.2% under setting [42].
Turning to `CC(=O)O[C@H]1C(=O)[C@@]2(C)[C@H]([C@H](OC(=O)c3ccccc3)[C@]3(O)C[C@H](OC(=O)[C@H](O)[C@@H](NC(=O)c4ccccc4)c4ccccc4)C(C)=C1C3(C)C)[C@]1(OC(C)=O)CO[C@@H]1C[C@@H]2O`, the viability, T/C runs as follows: (compound 0.00949 µM) 84.8% and 82.2% and 94.2%; (compound 0.03 µM) 76.5% and 84.1% and 70.9%; (compound 0.0949 µM) 49.1% and 47.2% and 41.7%; (compound 0.3 µM) 31.8% and 42.1% and 26.9%; (compound 0.949 µM) 22.3% and 28.3% and 21.8%; (compound 3 µM) 28.1% and 22.8% and 15.4%. For the same compound, the pIC50 (curve of compound) is 7.03 and 6.90 and 7.15.
For `C#Cc1c(F)ccc2cc(O)cc(-c3ncc4c(N5CC6CCC(C5)N6)nc(OCC56CCCN5CC(F)C6)nc4c3F)c12` (stereo not given), the viability, T/C was 90.8% and 94.2% and 98% (compound 0.0316 µM); 109% and 101% and 94.8% (compound 0.1 µM); 113% and 107% and 110% (compound 0.316 µM); 117% and 116% and 112% (compound 1 µM); 102% and 117% and 93.7% (compound 3.16 µM); 84.7% and 82.2% and 84.4% (compound 10 µM). Also, for the setting “curve of compound”, the pIC50 was < 5.00.
